Test results published in patent US20220409643A1, “ROR Gamma T Inhibitors and Topical Uses Thereof” (Dermira, inc., priority 2019, published 2022).

Each molecule was assayed on IL17A (assay: skin Resident Immune Cell Assay (sRICA), Th17 model, IL17A protein in media). Conditions: 100 uM solution in 1% DMSO/OD applied topically to human skin; media collected 24 hours after Th17 activation.
Format: cell-based
Experimental: A skin Resident Immune Cell Assay (sRICA) was used to test compounds for reduction of IL-17A protein upregulation in the Th17 sRICA model. In this model, human surgical skin waste was cultured in a transwell system, with the dermis in contact with cell culture media and the stratum corneum exposed to air. To perform the assay, each human skin sample was defatted and dermatomed to 750μm. Next, 8 mm punch biopsies were obtained and placed in a membrane transwell. The transwells were inserted into culture wells with complete media, and a cocktail of cytokines and antibodies were added to promote skin resident immune cell polarization.
RORγt inhibitors were prepared as a 100 uM solution in 1% DMSO/OD. […] of the prepared topical solution was applied to sRICA wells prepared for topical drug evaluation. Drugs were allowed to penetrate the skin overnight, for up to 24 hours prior to Th17 activation. Media was collected 24 hours after Th17 activation for IL17A protein assessment. IL17A protein was evaluated using the Quanterix IL17A detection kit on the SiMoA platform (via CRO Translational Biosciences). There was significant upregulation of IL17A with Th17 activation. Each study was normalized to the % max of IL17A production (i.e. the average IL17A concentration of Th17 activated skin alone) was set to 100%, all other values (untreated no activation and treated samples) were obtained as a percentage of this. […]
`COc1ccc2c(c1)CCN(C(=O)Cc1cc(O)no1)[C@H]2C(=O)Nc1cc(F)c2c(c1)CCC2(C)C` [(1R)-N-(7-fluoro-1,1-dimethyl-2,3-dihydro-1H-inden-5-yl)-2-((3-hydroxy-1,2-oxazol-5-yl)acetyl)-6-methoxy-1,2,3,4-tetrahydroisoquinoline-1-carboxamide] was tested, and the inhibition at 100 µM was 33.9%. Work on `CCOCC(C)(C)c1c(F)cc(NC(=O)[C@H]2c3ccc(OC)cc3CCN2C(=O)Cc2cc(O)no2)cc1F` [(1R)-N-(4-(1-ethoxy-2-methylpropan-2-yl)-3,5-difluorophenyl)-2-((3-hydroxy-1,2-oxazol-5-yl)acetyl)-6-methoxy-1,2,3,4-tetrahydro-isoquinoline-1-carboxamide] yielded an inhibition at 100 µM of 54.9%. Work on `CC(C)n1c(=O)n(CC2CC2)c(=O)c2cc(NC(=O)N3CCC[C@@H](NC(=O)c4ccccc4)C3)ccc21` [(3R)-3-(benzoylamino)-N-(3-(cyclopropylmethyl)-1-isopropyl-2,4-dioxo-1,2,3,4-tetrahydroquinazolin-6-yl)piperidine-1-carboxamide] yielded an inhibition at 100 µM of 53.2%. Work on `COCc1ccc2c(c1)CCN(C(=O)c1cc(O)no1)[C@H]2C(=O)Nc1cc(F)c2c(c1)CCC2(C)C` [(1R)-N-(7-fluoro-1,1-dimethyl-2,3-dihydro-1H-inden-5-yl)-2-((3-hydroxy-1,2-oxazol-5-yl)carbonyl)-6-(methoxymethyl)-1,2,3,4-tetrahydroisoquinoline-1-carboxamide] yielded an inhibition at 100 µM of 59.1%. `COc1ccc2c(c1)CCN(C(=O)Cc1cc(O)no1)[C@H]2C(=O)Nc1cc(F)c(C(C)(C)C)c(F)c1` [(1R)-N-(4-tert-butyl-3,5-difluorophenyl)-2-((3-hydroxy-1,2-oxazol-5-yl)acetyl)-6-methoxy-1,2,3,4-tetrahydroisoquinoline-1-carboxamide] showed an inhibition at 100 µM of -10.9%. For `COCc1ccc2c(c1)CCN(C(=O)Cc1cc(O)no1)[C@H]2C(=O)Nc1cc(F)c2c(c1)CCC2(C)C` [(1R)-N-(7-fluoro-1,1-dimethyl-2,3-dihydro-1H-inden-5-yl)-2-((3-hydroxy-1,2-oxazol-5-yl)acetyl)-6-(methoxymethyl)-1,2,3,4-tetrahydroisoquinoline-1-carboxamide], the inhibition at 100 µM was 50.5%. For `COc1ccc2c(n1)CCN(C(=O)Cc1cc(O)no1)[C@H]2C(=O)Nc1cc(F)c2c(c1)CCC2(C)C` [(5R)-N-(7-fluoro-1,1-dimethyl-2,3-dihydro-1H-inden-5-yl)-6-((3-hydroxy-1,2-oxazol-5-yl)acetyl)-2-methoxy-5,6,7,8-tetrahydro-1,6-naphthyridine-5-carboxamide], the inhibition at 100 µM was 19.2%. Work on `COc1ccc2c(c1)CCN(C(=O)Cc1cc(O)no1)[C@H]2C(=O)Nc1ccc(C(C)(C)C)c(F)c1` [(1R)-N-(4-tert-butyl-3-fluorophenyl)-2-((3-hydroxy-1,2-oxazol-5-yl)acetyl)-6-methoxy-1,2,3,4-tetrahydroisoquinoline-1-carboxamide] yielded an inhibition at 100 µM of 23.6%. `COCC(C)(C)c1ccc(NC(=O)[C@H]2c3ccc(OC)cc3CCN2C(=O)c2cc(O)no2)cc1F` [(1R)-N-(3-fluoro-4-(1-methoxy-2-methylpropan-2-yl)phenyl)-2-((3-hydroxy-1,2-oxazol-5-yl)carbonyl)-6-methoxy-1,2,3,4-tetrahydroisoquinoline-1-carboxamide] was tested, and the inhibition at 100 µM was 55%.

Same assay, conditions: Homo sapiens, 24 h, 100 uM solution in 1% DMSO/OD applied topically to human skin; media collected 24 hours after Th17 activation
Work on `COc1ccc2c(c1)CCN(C(=O)Cc1cc(O)no1)[C@H]2C(=O)Nc1ccc([Si](C)(C)C)c(C#N)c1` [(1R)-N-(3-cyano-4-(trimethylsilyl)phenyl)-2-((3-hydroxy-1,2-oxazol-5-yl)acetyl)-6-methoxy-1,2,3,4-tetrahydroisoquinoline-1-carboxamide] yielded an inhibition at 100 µM of 42.8%. In the case of `COc1ccc(C(NC(=O)C2CNC(=O)C2)C(=O)Nc2ccc([Si](C)(C)C)c(F)c2)cc1` (stereo not drawn) [N-(2-((3-fluoro-4-(trimethylsilyl)phenyl)amino)-1-(4-methoxyphenyl)-2-oxoethyl)-5-oxopyrrolidine-3-carboxamide], the inhibition at 100 µM was 65.8%. For `COCc1ccc([C@@H](NC(=O)CCCC(=O)O)C(=O)Nc2cc(F)c([Si](C)(C)C)c(F)c2)cc1` [5-(((1R)-2-((3,5-difluoro-4-(trimethylsilyl)phenyl)amino)-1-(4-(methoxymethyl)phenyl)-2-oxoethyl)amino)-5-oxopentanoic acid], the inhibition at 100 µM was 26.7%. In the case of `COCc1ccc(C(NC(=O)C2CNC(=O)C2)C(=O)Nc2ccc([Si](C)(C)C)c(F)c2)cc1` (stereo not drawn) [N-(2-((3-fluoro-4-(trimethylsilyl)phenyl)amino)-1-(4-(methoxymethyl)phenyl)-2-oxoethyl)-5-oxopyrrolidine-3-carboxamide], the inhibition at 100 µM was 85.2%. `CCn1c2ccccc2c2cc(C(=O)NCC(C)CC(=O)Nc3ccc(C#N)c(Cl)c3)ccc21` (stereo not drawn) [N-{4-[(3-chloro-4-cyanophenyl)amino]-2-methyl-4-oxobutyl}-9-ethyl-9H-carbazole-3-carboxamide] was tested, and the inhibition at 100 µM was 24.5%. For `COCc1ccc([C@@H](NC(=O)N2CC(O)C2)C(=O)Nc2ccc([Si](C)(C)C)c(F)c2)cc1` [N-((1R)-2-((3-fluoro-4-(trimethylsilyl)phenyl)amino)-1-(4-(methoxymethyl)phenyl)-2-oxoethyl)-3-hydroxyazetidine-1-carboxamide], the inhibition at 100 µM was 54.6%. In the case of `COCc1ccc([C@@H](NC(=O)C2CNC(=O)C2)C(=O)Nc2ccc([Si](C)(C)C)c(F)c2)cc1` (stereo in doubt) [(3R)-N-((1R)-2-((3-fluoro-4-(trimethylsilyl)phenyl)amino)-1-(4-(methoxymethyl)phenyl)-2-oxoethyl)-5-oxopyrrolidine-3-carboxamide], the inhibition at 100 µM was 75.7%. `COc1ccc2c(c1)CCN(C(=O)Cc1cc(O)no1)[C@H]2C(=O)Nc1ccc([Si](C)(C)C)c(F)c1` [(1R)-N-(3-fluoro-4-(trimethylsilyl)phenyl)-2-((3-hydroxy-1,2-oxazol-5-yl)acetyl)-6-methoxy-1,2,3,4-tetrahydroisoquinoline-1-carboxamide] showed an inhibition at 100 µM of 31.2%. `CC[Si](C)(C)c1c(F)cc(NC(=O)[C@H]2c3ccc(OC)nc3CCN2C(=O)CCCC(=O)O)cc1F` [5-((5R)-5-((4-(ethyl(dimethyl)silyl)-3,5-difluorophenyl)carbamoyl)-2-methoxy-7,8-dihydro-1,6-naphthyridin-6(5H)-yl)-5-oxopentanoic acid] gave an inhibition at 100 µM of 41.9%. `Cn1ncc2cc([C@@H](NC(=O)[C@@H]3CNC(=O)C3)C(=O)Nc3ccc([Si](C)(C)C)c(F)c3)ccc21` [drawing 79, (3S)-N-((1R)-2-((3-fluoro-4-(trimethylsilyl)phenyl)amino)-1-(1-methyl-1H-indazol-5-yl)-2-oxoethyl)-5-oxopyrrolidine-3-carboxamide] showed an inhibition at 100 µM of 45.7%. Molecule `COCc1ccc2c(c1)CCN(C(=O)CCCC(=O)O)[C@H]2C(=O)Nc1cc(F)c([Si](C)(C)C)c(F)c1` [5-((1R)-1-((3,5-difluoro-4-(trimethylsilyl)phenyl)carbamoyl)-6-methoxymethyl-3,4-dihydroisoquinolin-2(1H)-yl)-5-oxopentanoic acid] has an inhibition at 100 µM of 77.4%. For `COCc1ccc2c(n1)CCN(C(=O)Cc1cc(O)no1)[C@H]2C(=O)Nc1cc(F)c([Si](C)(C)C)c(F)c1` [(5R)-N-(3,5-difluoro-4-(trimethylsilyl)phenyl)-6-((3-hydroxy-1,2-oxazol-5-yl)acetyl)-2-(methoxymethyl)-5,6,7,8-tetrahydro-1,6-naphthyridine-5-carboxamide], the inhibition at 100 µM was 60.1%.
